# Patent US20240350522A1, “HYGROMYCIN A FOR TREATMENT OF DISEASES AND INFECTIONS” (FLIGHTPATH BIOSCIENCES, INC., priority 2021, published 2024)
# Where “and” joins values, the source holds several entries; their conditions need not be identical. Equal entries are not always repeated.
# Experiments:
# Format in all cases: cell-based
# [1] = system: Treponema pallidum pallidum Chicago strain; test: T. pallidum susceptibility assay, co-culture with Sf1Ep cells, tp0574 (T47) qPCR after 7 days; settings: penicillin 60 ng/ml, 7 days
# [2] = system: Treponema pallidum pallidum Chicago strain; test: Treated treponemes seeded onto no-antibiotic plate, 7 more days, T47 qPCR (treponemicidal activity)
# [3] = system: Treponema pallidum pallidum SS14 strain; test: T. pallidum susceptibility assay, co-culture with Sf1Ep cells, tp0574 (T47) qPCR after 7 days; settings: penicillin 60 ng/ml, 7 days
# [4] = system: Treponema pallidum pallidum SS14 strain; test: Treated treponemes seeded onto no-antibiotic plate, 7 more days, T47 qPCR (treponemicidal activity)
# [5] = pre-treated with penicillin 60 ng/ml, seeded on no antibiotic plate, average
# [6] = pre-treated with penicillin 60 ng/ml, seeded on no antibiotic plate, replicate wells
smiles,measurement,setting,value
"CC1(C)S[C@@H]2[C@H](NC(=O)Cc3ccccc3)C(=O)N2[C@H]1C(=O)O [Pen., penicillin G, reference compound]","Mean T47 copies/μL, Avg.",[1]; average of 8 replicates,252 copies/μL
same,"Mean T47 copies/μL, experimental values",[1]; replicate wells,294 copies/μL and 226 copies/μL and 304 copies/μL and 137 copies/μL and 328 copies/μL and 261 copies/μL and 222 copies/μL and 241 copies/μL
same,treponemicidal activity in words,"[2]; Chicago strain, 60 ng/ml",treponemicidal
same,"Mean T47 copies/μL, Avg.",[2]; [5],26 copies/μL
same,"Mean T47 copies/μL, Expt. values",[2]; [6],12 copies/μL (2×) and 41 copies/μL and 74 copies/μL and 22 copies/μL (2×) and 15 copies/μL and 11 copies/μL
same,"Mean T47 copies/μL, Average",[3]; average of 8 replicates,216 copies/μL
same,"Mean T47 copies/μL, experimental values",[3]; replicate wells,189 copies/μL and 200 copies/μL and 166 copies/μL and 282 copies/μL and 184 copies/μL and 223 copies/μL and 214 copies/μL and 271 copies/μL
same,treponemicidal activity in words,"[4]; SS14 strain, 60 ng/ml",treponemicidal
same,"Mean T47 copies/μL, Avg.",[4]; [5],18 copies/μL
same,"Mean T47 copies/μL, Expt. values",[4]; [6],21 copies/μL (2×) and 17 copies/μL and 24 copies/μL and 10 copies/μL and 13 copies/μL and 27 copies/μL and 15 copies/μL
